From patent publication US20030170229A1, “Vaccine” (SmithKline Beecham Biologicals s.a., priority 1999, published 2003) come the findings set out here.

Entries after “also recorded” stand apart in the source; their conditions may differ.

In assay [1] the test system is P14 peptide. The experiment in a line: Anti-peptide ELISA on sera of mice immunised with P14 conjugates. As to conditions: mice vaccinated with P14 conjugate. Type of assay: in vivo, BalbC mice. As for the experimental part: (§1) The anti-peptide and anti-carrier immune responses were investigated using an ELISA technique outlined below. Microtiterplates (Nunc) are coated with the specific antigen in PBS (4° overnight) with either: Streptavidin at 2 μg/ml (followed by incubation with biotinylated peptide (1 μM) for 1 hour at 37° C.), Wash 3× PBS-Tween 20 0.1%. Saturate plates with PBS-BSA 1%-Tween 20 0.1% (Sat buffer) for 1 hr at 37°. Add 1° antibody=sera in two-step dilution (in Sat buffer), incubate 1 hr 30 minutes at 37°. Wash 3×. Add 2° anti-mouse Ig (or anti-mouse isotype specific monoclonal antibody) coupled to HRP. Incubate 1 hr at 37°. Wash 5×. Reveal with TMB (BioRad) for 10 minutes at room temperature in the dark. Block reaction with 0.4N H2SO4.
The conjugates comprising the mimotope P14 (25 μg protein/dose), described in example 1, were administered into groups of 10 BalbC mice, adjuvanted with and oil in water emulsion containing QS21 and 3D-MPL described in WO 95/17210. Boosting was be performed on days 14, 24 and 72, sera was harvested 14 days after each immunisation. The immune responses anti-peptide and anti-plate bound IgE was followed using ELISA methods described in Example 1. The antiserum was then tested for anaphylactogenicity and functional activity in the inhibition of histamine release from human allergic basophils (methods as described in example 1).

Assay [2] has as its system human IgE. The experiment in a line: IgE plate bound ELISA: anti-human IgE reactivity in serum of immunised mice. Type of assay: in vivo, mouse. Background: An ELISA detects its analyte on a solid surface through an enzyme-linked reagent.
Assay [3] concerns allergic human basophils. The experiment in a line: Human basophil assay, blocking assay (inhibition of allergen-triggered histamine release). It is filed as cell-based. As to conditions: mouse antiserum; allergic human basophils triggered with allergen. An excerpt: Samples of cells were lysed by 2× freeze/thawing to assay total histamine contained in the cells.
The degree of inhibition of histamine release can be calculated using the formula: […]
(histamine release from antigen stimulated cells*)
Values corrected for spontaneous release.

For assay [4], the system named is Peptide P11. Put plainly: Anti-P11 ELISA on sera of mice immunised with P11-BSA. It is filed as in vivo. The settings on record: P11 coupled to BSA, 25 μg in SBAS2 IM, 8 female BALB/c mice, days 0, 14, 28. As to the method: FIG. 5, Antibody response anti-P11. Peptide P11 is coated at 1 μg/ml in carbonate buffer at +4° C. overnight. After saturation of plates, two-fold serial dilution of sera are added and incubated for 1 h at 37° C. Bound IgG is detected with a biotinylated anti-mouse Ab followed by streptavidin-POD and TMB substrate. Time points measured A. days 14 post vaccination 1, and day 14 post v2; B, Day 14 post v3.
as §1
25 μg of conjugate formulated in SBAS2 was injected IM into 8 female BALB/c mice at days 0, 14 and 28. […] Anti-peptide and anti-IgE antibodies raised by vaccination were measured by ELISA, as described in Example 1.

Take “APEWPGSRDKRTC (Human peptide sequence) [Peptide P14]”: the “induction of anti-P14 immune response” value in assay [1] is “capable of raising high titres”. For the same sequence, the “induction of anti-IgE immune response” value in assay [2] (mice vaccinated with P14 conjugate) is recorded as “capable of raising high titres”. Besides, the “inhibition of histamine release by antiserum/antibodies raised by vaccination” value in assay [3] is “potent in the inhibition of histamine release; also recorded: inhibited histamine release”.
Take “CRASGKPVNHSTRKEEKQRNGLL (Human peptide sequence) [Peptide P11]”: the anti-IgE response in assay [2] (as expressed in mAb005 equivalents, all mice, after a third injection of P11 coupled to BSA) was 28 to 244 µg/mL. Moreover, the “IgG anti-P11 response” value in assay [4] was “detected already after one injection, but increased further after the second and third injection”.
